Assay results reported in ChEMBL document CHEMBL4219262, “Design, synthesis and evaluation of benzoheterocycle analogues as potent antifungal agents targeting CYP51” (Bioorg Med Chem, 2018).
In brackets after ≈: the same amount, converted by molar mass.

Assays:
[1] = system: Aspergillus fumigatus; assay: Antifungal activity against Aspergillus fumigatus cgmcc 3.7795 after 7 days by serial dilution method; type: functional; conditions: cgmcc 3.7795, 168 h
[2] = system: Candida albicans; assay: Antifungal activity against Candida albicans CPCC 400523 after 24 hrs by serial dilution method; type: functional; conditions: CPCC 400523, 24 h
[3] = system: Candida albicans; assay: Antifungal activity against Candida albicans ATCC SC5314 after 24 hrs by serial dilution method; type: functional; conditions: SC5314, 24 h
[4] = system: Candida tropicalis; assay: Antifungal activity against Candida tropicalis cgmcc 2.3739 after 24 hrs by serial dilution method; type: functional; conditions: cgmcc 2.3739, 24 h
[5] = system: Cryptococcus neoformans; assay: Antifungal activity against Cryptococcus neoformans cgmcc 2.3161 after 72 hrs by serial dilution method; type: functional; conditions: cgmcc 2.3161, 72 h
[6] = system: Candida albicans; assay: Antifungal activity against fluconazole-resistant Candida albicans strain 103 after 24 hrs by serial dilution method; type: functional; conditions: Candida albicans, 103, 24 h
[7] = system: Candida albicans; assay: Antifungal activity against fluconazole-resistant Candida albicans strain 100 after 24 hrs by serial dilution method; type: functional; conditions: Candida albicans, 100, 24 h
[8] = Stability in human plasma assessed as parent compound remaining at 2 uM after 60 mins by LC-MS/MS analysis; type: ADME, cell-free; conditions: read-out: Stability
[9] = Stability in human plasma assessed as parent compound remaining at 2 uM after 120 mins by LC-MS/MS analysis; type: ADME, cell-free; conditions: read-out: Stability

MIC [1] [µg/mL] | MIC [2] [µg/mL] | MIC [3] [µg/mL] | MIC [4] [µg/mL] | MIC [5] [µg/mL] | Compound | MIC [6] [µg/mL] | MIC [7] [µg/mL] | remaining at 1 h, 2 µM [8] [%] | remaining at 2 h, 2 µM [9] [%]
64 (≈ 175 µM) | 64 (≈ 175 µM) | 64 (≈ 175 µM) | 32 (≈ 87.3 µM) | 64 (≈ 175 µM) | CC(C)COC(=O)[C@H](Cn1ccnc1)NC(=O)c1cnc2ccccc2c1 |  |  |  | 
64 (≈ 187 µM) | 64 (≈ 187 µM) | 64 (≈ 187 µM) | 64 (≈ 187 µM) | 64 (≈ 187 µM) | CC(C)OC(=O)[C@H](Cn1ccnc1)NC(=O)c1nc2ccccc2[nH]1 |  |  |  | 
64 (≈ 181 µM) | 8 (≈ 22.6 µM) | 8 (≈ 22.6 µM) | 0.5 (≈ 1.41 µM) | 64 (≈ 181 µM) | CC(C)OC(=O)[C@H](Cn1ccnc1)NC(=O)c1cc2ccccc2n1C |  |  |  | 
64 (≈ 181 µM) | 64 (≈ 181 µM) | 64 (≈ 181 µM) | 16 (≈ 45.3 µM) | 64 (≈ 181 µM) | CC(C)OC(=O)[C@H](Cn1ccnc1)NC(=O)c1cnc2ccccc2n1 |  |  |  | 
64 (≈ 182 µM) | 64 (≈ 182 µM) | 64 (≈ 182 µM) | 32 (≈ 90.8 µM) | 64 (≈ 182 µM) | CC(C)OC(=O)[C@H](Cn1ccnc1)NC(=O)c1cnc2ccccc2c1 |  |  |  | 
32 (≈ 93.7 µM) | 32 (≈ 93.7 µM) | 16 (≈ 46.9 µM) | 0.5 (≈ 1.46 µM) | 4 (≈ 11.7 µM) | CC(C)OC(=O)[C@H](Cn1ccnc1)NC(=O)c1cc2ccccc2o1 |  |  |  | 
64 (≈ 187 µM) | 64 (≈ 187 µM) | 64 (≈ 187 µM) | 32 (≈ 93.5 µM) | 64 (≈ 187 µM) | CC(C)OC(=O)[C@H](Cn1ccnc1)NC(=O)c1ccc2ncoc2c1 |  |  |  | 
64 (≈ 180 µM) | 64 (≈ 180 µM) | 64 (≈ 180 µM) | 64 (≈ 180 µM) | 64 (≈ 180 µM) | Cc1nc2ccc(C(=O)N[C@@H](Cn3ccnc3)C(=O)OC(C)C)cc2o1 |  |  |  | 

Second part, the compound before the results:

Compound | MIC [1] [µg/mL] | MIC [2] [µg/mL] | MIC [3] [µg/mL] | MIC [4] [µg/mL] | MIC [5] [µg/mL] | MIC [6] [µg/mL] | MIC [7] [µg/mL] | remaining at 1 h, 2 µM [8] [%] | remaining at 2 h, 2 µM [9] [%]
CC(C)OC(=O)[C@H](Cn1ccnc1)NC(=O)c1nc2ccc(Br)cc2s1 | > 64 | 0.5 (≈ 1.14 µM) | 0.125 (≈ 0.286 µM) | 1 (≈ 2.29 µM) | 2 (≈ 4.57 µM) |  |  |  | 
CC(C)COC(=O)[C@H](Cn1ccnc1)NC(=O)c1cc2ccccc2s1 | 8 (≈ 21.5 µM) | 1 (≈ 2.69 µM) | 0.5 (≈ 1.35 µM) | 0.25 (≈ 0.673 µM) | 1 (≈ 2.69 µM) |  |  |  | 
CC(C)COC(=O)[C@H](Cn1ccnc1)NC(=O)c1noc2c1CCc1ccccc1-2 | 8 (≈ 19.6 µM) | 0.5 (≈ 1.22 µM) | 0.125 (≈ 0.306 µM) | 0.125 (≈ 0.306 µM) | 4 (≈ 9.79 µM) | 0.5 (≈ 1.22 µM) | 1 (≈ 2.45 µM) |  | 
CC(C)COC(=O)[C@H](Cn1ccnc1)NC(=O)c1ccc2c(c1)OCO2 | 64 (≈ 178 µM) | 64 (≈ 178 µM) | 64 (≈ 178 µM) | 16 (≈ 44.5 µM) | 64 (≈ 178 µM) |  |  |  | 
CC(C)COC(=O)[C@H](Cn1ccnc1)NC(=O)c1cc2ccccc2n1C | 64 (≈ 174 µM) | 8 (≈ 21.7 µM) | 8 (≈ 21.7 µM) | 1 (≈ 2.71 µM) | 4 (≈ 10.9 µM) |  |  |  | 
CC(C)OC(=O)[C@H](Cn1ccnc1)NC(=O)c1cc2ccc(F)cc2[nH]1 | 64 (≈ 179 µM) | 32 (≈ 89.3 µM) | 32 (≈ 89.3 µM) | 0.5 (≈ 1.4 µM) | 8 (≈ 22.3 µM) |  |  |  | 
CC(C)OC(=O)[C@H](Cn1ccnc1)NC(=O)c1noc2c1CCCc1ccccc1-2 | 64 (≈ 157 µM) | 2 (≈ 4.9 µM) | 16 (≈ 39.2 µM) | 1 (≈ 2.45 µM) | 64 (≈ 157 µM) |  |  |  | 
CC(C)COC(=O)[C@H](Cn1ccnc1)NC(=O)c1cc2ccccc2o1 | 32 (≈ 90 µM) | 8 (≈ 22.5 µM) | 8 (≈ 22.5 µM) | 0.25 (≈ 0.703 µM) | 4 (≈ 11.3 µM) |  |  |  | 
CC(C)OC(=O)[C@H](Cn1ccnc1)NC(=O)c1ccc2c(c1)OCO2 | 64 (≈ 185 µM) | 64 (≈ 185 µM) | 64 (≈ 185 µM) | 32 (≈ 92.7 µM) | 64 (≈ 185 µM) |  |  |  | 
COc1ccc2c(c1)-c1onc(C(=O)N[C@@H](Cn3ccnc3)C(=O)OC(C)C)c1CC2 | 64 (≈ 151 µM) | 16 (≈ 37.7 µM) | 0.25 (≈ 0.589 µM) | 2 (≈ 4.71 µM) | 64 (≈ 151 µM) |  |  |  | 
CC(C)COC(=O)[C@H](Cn1ccnc1)NC(=O)c1noc2c1ccc1ccccc12 | 16 (≈ 39.4 µM) | 0.25 (≈ 0.615 µM) | 0.125 (≈ 0.308 µM) | 0.125 (≈ 0.308 µM) | 0.125 (≈ 0.308 µM) | 2 (≈ 4.92 µM) | 2 (≈ 4.92 µM) |  | 
COc1ccc2c(c1)CCc1c(C(=O)N[C@@H](Cn3ccnc3)C(=O)OC(C)C)noc1-2 | 64 (≈ 151 µM) | 4 (≈ 9.42 µM) | 0.25 (≈ 0.589 µM) | 8 (≈ 18.8 µM) | 64 (≈ 151 µM) |  |  |  | 
CC(C)OC(=O)[C@H](Cn1ccnc1)NC(=O)c1noc2c1ccc1ccccc12 | 4 (≈ 10.2 µM) | 0.25 (≈ 0.637 µM) | 0.125 (≈ 0.319 µM) | 0.125 (≈ 0.319 µM) | 0.25 (≈ 0.637 µM) | 1 (≈ 2.55 µM) | 2 (≈ 5.1 µM) | 95.8 | 91.7
